Assay results from PMC11672292, “Discovery of Balasubramide Derivative with Tissue‐Specific Anti‐Inflammatory Activity Against Acute Lung Injury by Targeting VDAC1” (Advanced Science, 2024).

Tests used:
[1] = tested on: RAW264.7 cells; assay: CCK-8 cell viability assay; assay type: cell-based, mouse; details: 10 μM, 24 h
Protocol: Cell viability was determined by CCK‐8 assay. RAW264.7 cells or mouse BMDMs cultured in a 96‐well plate were pretreated with various compounds at 10 µM or different concentrations of (+)3C‐20 for 24 h when cells reached 70% confluence and then were treated with DMEM containing 5 µL CCK‐8 reagent (A311, Vazyme, China) in a humidified atmosphere of 5% CO2 and 95% air for 1 h at 37 °C. The UV absorption values of the medium with CCK‐8 were measured at 450 nm in a ThermoFisher plate‐reader (VL0L0TD2, Waltham, USA).

[2] = tested on: LPS-stimulated RAW264.7 cells; assay: LPS-induced TNF-α release in RAW264.7 macrophages (ELISA); assay type: cell-based, mouse; details: for IC50: read-out: IC50, inhibition of LPS-induced TNF-α release
Protocol: The anti‐inflammatory effects of all (+)‐balasubramide derivatives were evaluated in Lipopolysaccharide (LPS, L2630, Sigma–Aldrich, USA)‐induced macrophage inflammation model. RAW264.7 cells were pretreated with various compounds or (+)3C‐20 at different concentrations for 3 h, and then stimulated with LPS (100 ng mL^−1) for 2 h for the detection of pro‐inflammatory factors expressions. Similarly, following 3 h co‐incubation with (+)3C‐20, mouse BMDMs were stimulated with LPS (100 ng mL^−1) for 3 h. TNF‐α protein in the culture medium supernatant was measured by a commercial ELISA kit (#1 217 202, DAKEWE, China) following the manufacture's protocols.

[3] = tested on: mice; assay: Acute toxicity (LD50, sequential method), single intravenous injection; details: for Mortality: i.v.
Source text: To test the safety of (+)3C‐20 in mice, as previously reported,^[ [31] ^] we estimated the acute toxicity of (+)3C‐20 in mice using a sequential method.

SMILES	cell viability [1]	effect on the release of TNF-α ([2]; LPS-induced RAW 264.7 macrophage inflammation model)	inhibition at 10 µM ([2]; Mus musculus, 10 μM + LPS (100 ng/mL), RAW264.7 cells, n = 3, read-out: Inhibition rate (%) of TNF-α release)	Mortality ([3]; dosage 60.00 mg/kg)	Mortality ([3]; dosage 71.14 mg/kg)	Mortality ([3]; dosage 84.34 mg/kg)	Mortality ([3]; dosage 100.00 mg/kg)	LD50 ([3]; single intravenous injection)	IC50 ([2]; RAW264.7 cells)
CN1CCc2c([nH]c3ccccc23)C(c2ccccc2)C(O)C1=O (single isomer, unassigned; (+)) [(+)3J]	95.09 ± 1.19	a certain inhibitory effect	19.1 ± 1.83%						
O=C(CC(CO)N1CCN(c2ccc(OC(F)(F)F)cc2)CC1)Nc1ccc(Cl)cc1 (stereo not shown) [VBIT-4]				0	14.286	83.333	100	75.828 mg/kg	19.8 µM
O=C(O)CNC(=O)C1(Nc2ccccc2)CCN(Cc2cccc3ccccc23)CC1 [VBIT-12, reference compound]									83.1 µM
